Converted amounts (≈) assume the structure as drawn.
Experiments:
Staphylococcus aureus [1] = assay: Antimicrobial activity against Staphylococcus aureus ATCC 29213 at 100 ug/ml after 24 hrs by agar well diffusion assay; format: functional; details: ATCC 29213, 24 h, read-out: DIZ
Bacillus subtilis [2] = assay: Antimicrobial activity against Bacillus subtilis ATCC 6633 at 100 ug/ml after 24 hrs by agar well diffusion assay; format: functional; details: ATCC 6633, 24 h, read-out: DIZ
Priestia megaterium [3] = assay: Antimicrobial activity against Bacillus megaterium ATCC 9885 at 100 ug/ml after 24 hrs by agar well diffusion assay; format: functional; details: ATCC 9885, 24 h, read-out: DIZ
Micrococcus luteus [4] = assay: Antimicrobial activity against Sarcina lutea at 100 ug/ml after 24 hrs by agar well diffusion assay; format: functional; details: read-out: DIZ
Klebsiella pneumoniae [5] = assay: Antimicrobial activity against Klebsiella pneumoniae ATCC 13883 at 100 ug/ml after 24 hrs by agar well diffusion assay; format: functional; details: ATCC 13883, 24 h, read-out: DIZ
Pseudomonas aeruginosa [6] = assay: Antimicrobial activity against Pseudomonas aeruginosa ATCC 27953 at 100 ug/ml after 24 hrs by agar well diffusion assay; format: functional; details: ATCC 27953, 24 h, read-out: DIZ
Escherichia coli [7] = assay: Antimicrobial activity against Escherichia coli ATCC 25922 at 100 ug/ml after 24 hrs by agar well diffusion assay; format: functional; details: ATCC 25922, 24 h, read-out: DIZ
Saccharomyces cerevisiae [8] = assay: Antifungal activity against Saccharomyces cerevisiae at 100 ug/ml after 24 hrs by agar well diffusion assay; format: functional; details: read-out: DIZ
Candida albicans [9] = assay: Antifungal activity against Candida albicans NRRL Y-477 at 100 ug/ml after 24 hrs by agar well diffusion assay; format: functional; details: NRRL Y-477, 24 h, read-out: DIZ
Staphylococcus aureus [10] = assay: Antimicrobial activity against Staphylococcus aureus ATCC 29213 after 24 hrs by two-fold serial dilution method; format: functional; details: ATCC 29213, 24 h
Bacillus subtilis [11] = assay: Antimicrobial activity against Bacillus subtilis ATCC 6633 after 24 hrs by two-fold serial dilution method; format: functional; details: ATCC 6633, 24 h
Priestia megaterium [12] = assay: Antimicrobial activity against Bacillus megaterium ATCC 9885 after 24 hrs by two-fold serial dilution method; format: functional; details: ATCC 9885, 24 h
Micrococcus luteus [13] = assay: Antimicrobial activity against Sarcina lutea after 24 hrs by two-fold serial dilution method; format: functional
Klebsiella pneumoniae [14] = assay: Antimicrobial activity against Klebsiella pneumoniae ATCC 13883 after 24 hrs by two-fold serial dilution method; format: functional; details: ATCC 13883, 24 h
Pseudomonas aeruginosa [15] = assay: Antimicrobial activity against Pseudomonas aeruginosa ATCC 27953 after 24 hrs by two-fold serial dilution method; format: functional; details: ATCC 27953, 24 h
Escherichia coli [16] = assay: Antimicrobial activity against Escherichia coli ATCC 25922 after 24 hrs by two-fold serial dilution method; format: functional; details: ATCC 25922, 24 h
Saccharomyces cerevisiae [17] = assay: Antifungal activity against Saccharomyces cerevisiae by two-fold serial dilution method; format: functional
Candida albicans [18] = assay: Antifungal activity against Candida albicans NRRL Y-477 by two-fold serial dilution method; format: functional
Priestia megaterium [19] = assay: Antimicrobial activity against Bacillus megaterium ATCC 9885 at 50 ug/ml after 24 hrs by agar well diffusion assay; format: functional; details: ATCC 9885, 24 h, read-out: DIZ
Micrococcus luteus [20] = assay: Antimicrobial activity against Sarcina lutea at 50 ug/ml after 24 hrs by agar well diffusion assay; format: functional; details: read-out: DIZ
Staphylococcus aureus [21] = assay: microbe, parasite or virus in culture; details: ATCC 29213, 24 h, read-out: DIZ
Description: Antimicrobial activity against Staphylococcus aureus ATCC 29213 at 50 ug/ml after 24 hrs by agar well diffusion assay

Bacillus subtilis [22] = assay: microbe, parasite or virus in culture; details: ATCC 6633, 24 h, read-out: DIZ
Description: Antimicrobial activity against Bacillus subtilis ATCC 6633 at 50 ug/ml after 24 hrs by agar well diffusion assay

Klebsiella pneumoniae [23] = assay: microbe, parasite or virus in culture; details: ATCC 13883, 24 h, read-out: DIZ
Description: Antimicrobial activity against Klebsiella pneumoniae ATCC 13883 at 50 ug/ml after 24 hrs by agar well diffusion assay

Pseudomonas aeruginosa [24] = assay: microbe, parasite or virus in culture; details: ATCC 27953, 24 h, read-out: DIZ
Description: Antimicrobial activity against Pseudomonas aeruginosa ATCC 27953 at 50 ug/ml after 24 hrs by agar well diffusion assay

Saccharomyces cerevisiae [25] = assay: Antifungal activity against Saccharomyces cerevisiae at 50 ug/ml after 24 hrs by agar well diffusion assay; format: functional; details: read-out: DIZ
Candida albicans [26] = assay: Antifungal activity against Candida albicans NRRL Y-477 at 50 ug/ml after 24 hrs by agar well diffusion assay; format: functional; details: NRRL Y-477, 24 h, read-out: DIZ

Cc1ccc(-n2nnc(C3=NN(c4nc(-c5ccccc5)cs4)C(c4ccc(F)cc4)C3)c2C)cc1 (stereo not given)
zone of inhibition at 100 µg/mL (Staphylococcus aureus [1]): 26 mm
zone of inhibition at 100 µg/mL (Bacillus subtilis [2]): 24 mm
zone of inhibition at 100 µg/mL (Priestia megaterium [3]): 24 mm
zone of inhibition at 100 µg/mL (Micrococcus luteus [4]): 22 mm
zone of inhibition at 100 µg/mL (Klebsiella pneumoniae [5]): 26 mm
zone of inhibition at 100 µg/mL (Pseudomonas aeruginosa [6]): 28 mm
zone of inhibition at 100 µg/mL (Escherichia coli [7]): 16 mm
zone of inhibition at 100 µg/mL (Saccharomyces cerevisiae [8]): 22 mm
zone of inhibition at 100 µg/mL (Candida albicans [9]): 20 mm
MIC (Staphylococcus aureus [10]): 16.5 µg/mL (≈ 33.4 µM)
MIC (Bacillus subtilis [11]): 33 µg/mL (≈ 66.7 µM)
MIC (Priestia megaterium [12]): 33 µg/mL (≈ 66.7 µM)
MIC (Micrococcus luteus [13]): 66 µg/mL (≈ 133 µM)
MIC (Klebsiella pneumoniae [14]): 33 µg/mL (≈ 66.7 µM)
MIC (Pseudomonas aeruginosa [15]): 8.25 µg/mL (≈ 16.7 µM)
MIC (Escherichia coli [16]): 132 µg/mL (≈ 267 µM)
MIC (Saccharomyces cerevisiae [17]): 33 µg/mL (≈ 66.7 µM)
MIC (Candida albicans [18]): 66 µg/mL (≈ 133 µM)

O=C(O)c1cn(C2CC2)c2cc(N3CCNCC3)c(F)cc2c1=O [CIPROFLOXACIN]
zone of inhibition at 50 µg/mL (Priestia megaterium [19]): 24 mm
zone of inhibition at 50 µg/mL (Micrococcus luteus [20]): 20 mm
MIC (Staphylococcus aureus [10]): 8.25 µg/mL (≈ 24.9 µM)
MIC (Bacillus subtilis [11]): 8.25 µg/mL (≈ 24.9 µM)
MIC (Priestia megaterium [12]): 8.25 µg/mL (≈ 24.9 µM)
MIC (Micrococcus luteus [13]): 16.5 µg/mL (≈ 49.8 µM)
MIC (Klebsiella pneumoniae [14]): 16.5 µg/mL (≈ 49.8 µM)
MIC (Pseudomonas aeruginosa [15]): 16.5 µg/mL (≈ 49.8 µM)
MIC (Escherichia coli [16]): 16.5 µg/mL (≈ 49.8 µM)
zone of inhibition at 50 µg/mL (Staphylococcus aureus [21]): 20 mm
zone of inhibition at 50 µg/mL (Bacillus subtilis [22]): 22 mm
zone of inhibition at 50 µg/mL (Klebsiella pneumoniae [23]): 25 mm
zone of inhibition at 50 µg/mL (Pseudomonas aeruginosa [24]): 24 mm

CC(=O)N1CCN(c2ccc(OCC3COC(Cn4ccnc4)(c4ccc(Cl)cc4Cl)O3)cc2)CC1 (stereo not given) [KETOCONAZOLE]
zone of inhibition at 50 µg/mL (Saccharomyces cerevisiae [25]): 23 mm
zone of inhibition at 50 µg/mL (Candida albicans [26]): 22 mm
MIC (Saccharomyces cerevisiae [17]): 8.25 µg/mL (≈ 15.5 µM)
MIC (Candida albicans [18]): 8.25 µg/mL (≈ 15.5 µM)

Source: ChEMBL document CHEMBL2021863, “Design and synthesis of new 4-pyrazolin-3-yl-1,2,3-triazoles and 1,2,3-triazol-4-yl-pyrazolin-1-ylthiazoles as potential antimicrobial agents” (2012)
